According to patent US20240335390A9, “PHARMACEUTICAL COMPOSITIONS OF AMORPHOUS SOLID DISPERSIONS AND METHODS OF PREPARATION THEREOF” (Shenzhen Pharmacin Co., Ltd., priority 2020, published 2024):
Where two headings read alike, the source gives them in different places.

Experiments:
[1] = cited from earlier work
[2] = Kinetic solubility of neratinib maleate ASD powders, pH 4.0 phthalic acid buffer; type: physicochemical; conditions: pH 4.0 phthalic acid buffer solution, 37 °C, pH 4, aqueous buffer, thermodynamic from solid; crystalline
[3] = cited from earlier work; remark: listed apart in the source
[4] = tested on: EGFR autophosphorylation; conditions: in vitro; cited from earlier work
[5] = tested on: HER2 autophosphorylation; conditions: in vitro; cited from earlier work
[6] = tested on: MAPK signaling pathway; conditions: in vitro; cited from earlier work
[7] = tested on: AKT signaling pathway; conditions: in vitro; cited from earlier work
[8] = tested on: EGFR and/or HER2 expressing carcinoma cell lines; conditions: in vitro; cited from earlier work
[9] = second value listed in the cell

Molecule | Measured or Calculated pKas ([1]; first value listed in the cell) | Measured or Calculated pKas [1, 9] | also measured
Cc1nc(NC(=O)N2CCC[C@H]2C(N)=O)sc1-c1ccnc(C(C)(C)C(F)(F)F)c1 [Alpelisib] | 3.3 | 9.4 | 
CC1(C)S[C@@H]2[C@H](NC(=O)[C@H](N)c3ccc(O)cc3)C(=O)N2[C@H]1C(=O)O [Amoxicillin] | 3.39 | 6.71 | 
Cn1cc(-c2cc3c(N4CCN(c5ncc([C@@](C)(N)c6ccc(F)cc6)cn5)CC4)ncnn3c2)cn1 [Avapritinib] | 6.97 | 4.57 | Measured or Calculated pKas ([1]; fourth value listed in the cell): 1.51; Measured or Calculated pKas ([1]; third value listed in the cell): 3.50
CCC(C(=O)O)c1ccc(CC(C)C)cc1 (stereo not drawn) [Butibufen] | 4.64 |  | 
CC(C(=O)O)c1ccc2c(c1)[nH]c1ccc(Cl)cc12 (stereo not drawn) [Carprofen] | 4.63 |  | 
CN(C)[C@@H]1C(O)=C(C(N)=O)C(=O)[C@@]2(O)C(O)=C3C(=O)c4c(O)ccc(Cl)c4[C@@](C)(O)[C@H]3C[C@@H]12 [Chlortetracycline] | 3.33 ± 0.30 | 7.55 ± 0.02 | 
CC[C@H]1OC(=O)[C@H](C)[C@@H](O[C@H]2C[C@@](C)(OC)[C@@H](O)[C@H](C)O2)[C@H](C)[C@@H](O[C@@H]2O[C@H](C)C[C@H](N(C)C)[C@H]2O)[C@](C)(OC)C[C@@H](C)C(=O)[C@H](C)[C@@H](O)[C@]1(C)O [Clarithromycin] | 7.25 |  | 
CN1C[C@@H]2C[C@H]1CN2c1cc2c(cc1F)c(=O)c(C(=O)O)cn2C1CC1 [Danofloxacin] | 6.07 ± 0.06 | 8.56 ± 0.07 | 
CC(O)c1cc(C(=O)N[C@@H](C)Cn2ccc(-c3ccc(C#N)c(Cl)c3)n2)[nH]n1 (stereo partly drawn) [Darolutamide] | 11.75 |  | 
CN(C)[C@@H]1C(O)=C(C(N)=O)C(=O)[C@@]2(O)C(O)=C3C(=O)c4c(O)ccc(Cl)c4[C@@H](O)[C@H]3C[C@@H]12 [Demeclocycline] | 3.37 ± 0.30 | 7.36 ± 0.03 | 
O=C(O)Cc1ccccc1Nc1c(Cl)cccc1Cl [Diclofenac] | 4.16 |  | 
CN1CCN(c2cc3c(cc2F)c(=O)c(C(=O)O)cn3-c2ccc(F)cc2)CC1 [Difloxacin] | 5.66 ± 0.04 | 7.24 ± 0.06 | 
C[C@H]1c2cccc(O)c2C(=O)C2=C(O)[C@]3(O)C(=O)C(C(N)=O)=C(O)[C@@H](N(C)C)[C@@H]3[C@@H](O)[C@@H]21 [Doxycycline] | 3.02 ± 0.30 | 7.97 ± 0.15 | 
CCn1cc(C(=O)O)c(=O)c2cc(F)c(N3CCNCC3)nc21 [Enoxacin] | 5.05 ± 0.08 | 6.25 ± 0.05 | 
CCN1CCN(c2cc3c(cc2F)c(=O)c(C(=O)O)cn3C2CC2)CC1 [Enrofloxacin] | 5.88 ± 0.03 | 7.74 ± 0.03 | 
CNC(=O)c1ccc(N2C(=S)N(c3ccc(C#N)c(C(F)(F)F)c3)C(=O)C2(C)C)cc1F [Enzalutamide] | 3-11 |  | 
C#Cc1cccc(Nc2ncnc3cc(OCCOC)c(OCCOC)cc23)c1.Cl [Erlotinib] | 5.4 |  | 
CN1CCN(c2c(F)cc3c(=O)c(C(=O)O)cn(CCF)c3c2F)CC1 [Fleroxacin] | 5.46 | 8.00 | 
CC(C(=O)O)c1ccc(-c2ccccc2)c(F)c1 (stereo not drawn) [Flurbiprofen] | 4.35 |  | 
COc1cc2ncnc(Nc3ccc(F)c(Cl)c3)c2cc1OCCCN1CCOCC1 [Gefitinib] | 7.2 |  | 
CC(C)Cc1ccc(C(C)C(=O)O)cc1 (stereo not drawn) [Ibuprofen] | 4.51 |  | 
CC(CCc1ccccc1)NCC(O)c1ccc(O)c(C(N)=O)c1 (stereo not drawn) [Labetalol] | 7.35 |  | 
CN1CCN(c2c(F)cc3c(=O)c(C(=O)O)cn4c3c2OCN4C)CC1 [Marbofloxacin] | 5.69 ± 0.10 | 8.02 ± 0.20 | 
C=C1c2c(Cl)ccc(O)c2C(=O)C2=C(O)[C@]3(O)C(=O)C(C(N)=O)=C(O)[C@@H](N(C)C)[C@@H]3[C@@H](O)[C@H]12 [Meclocycline] | 4.05 ± 0.30 | 6.87 ± 0.39 | 
CCOc1cc2ncc(C#N)c(Nc3ccc(OCc4ccccn4)c(Cl)c3)c2cc1NC(=O)/C=C/CN(C)C.O=C(O)/C=C\C(=O)O [Neratinib maleate, (E)-N-(4-((3-chloro-4-(pyridin-2-ylmethoxy)phenyl)amino)-3-cyano-7-ethoxyquinolin-6-yl)-4-(dimethylamino)but-2-enamide maleate] |  |  | solubility [2]: < 300 µg/mL; solubility ([3]; pH 1.2): 32900 µg/mL; solubility according to the product label ([3]; pH 1.2): sparingly soluble; solubility according to the product label ([3]; pH 5.0): insoluble; solubility ([3]; pH approximately 5.0): ≤ 80 µg/mL

Molecule | Measured or Calculated pKas ([1]; first value listed in the cell) | Measured or Calculated pKas [1, 9] | also measured
CCOc1cc2ncc(C#N)c(Nc3ccc(OCc4ccccn4)c(Cl)c3)c2cc1NC(=O)/C=C/CN(C)C [Neratinib, neratinib] |  |  | EGFR autophosphorylation [4]: reduces; HER2 autophosphorylation [5]: reduces; downstream MAPK signaling pathway [6]: reduces; downstream AKT signaling pathway [7]: reduces; antitumor activity in carcinoma cell lines [8]: showed antitumor activity
CC1COc2c(N3CCN(C)CC3)c(F)cc3c(=O)c(C(=O)O)cn1c23 (stereo not drawn) [Ofloxacin] | 6.22 ± 0.05 | 7.81 ± 0.08 | 
COc1ccc2[nH]c([S+]([O-])Cc3ncc(C)c(OC)c3C)nc2c1 (stereo not drawn) [Omeprazole] | 4.14 | 8.90 | 
C=CCOc1ccccc1OCC(O)CNC(C)C (stereo not drawn) [Oxprenolol] | 9.62 |  | 
CN(C)[C@@H]1C(O)=C(C(N)=O)C(=O)[C@@]2(O)C(O)=C3C(=O)c4c(O)cccc4[C@@](C)(O)[C@H]3[C@H](O)[C@@H]12 [Oxytetracycline] | 3.04 | 8.00 | 
Cc1ccc(Nc2nccc(N(C)c3ccc4c(C)n(C)nc4c3)n2)cc1S(N)(=O)=O.Cl [Pazopanib HCL] | 2.1 | 6.4 | Measured or Calculated pKas ([1]; third value listed in the cell): 10.2
CCn1cc(C(=O)O)c(=O)c2cnc(N3CCNCC3)nc21 [Pipemidic acid] | 5.42 ± 0.05 | 8.18 ± 0.09 | 
CC(=O)Nc1ccc(OCC(O)CNC(C)C)cc1 (stereo not drawn) [Practolol] | 9.41 |  | 
CCN(CC)CCOC(=O)c1ccc(N)cc1 [Procaine] | 2.28 ± 0.08 | 9.02 ± 0.01 | 
CC(C)NCC(O)COc1cccc2ccccc12 (stereo not drawn) [Propranolol] | 9.49 ± 0.2 |  | 
CC[C@H]1OC(=O)[C@H](C)[C@@H](OC2C[C@@](C)(OC)C(O)C(C)O2)[C@H](C)[C@@H](O[C@@H]2OC(C)CC(N(C)C)C2O)[C@](C)(O)C[C@@H](C)/C(=N\OCOCCOC)[C@H](C)[C@@H](O)[C@]1(C)O (stereo partly drawn) [Roxithromycin] | 9.17 ± 0.30 |  | 
O=C(O)c1cn(-c2ccc(F)cc2)c2cc(N3CCNCC3)c(F)cc2c1=O [Sarafloxacin] | 5.62 ± 0.08 | 8.18 ± 0.09 | 
CC(=O)NS(=O)(=O)c1ccc(N)cc1 [Sulfacetamide] | 1.95 ± 0.11 | 5.30 ± 0.05 | 
Nc1ccc(S(=O)(=O)Nc2ccc(Cl)nn2)cc1 [Sulfachlorpyridazine] | 1.87 ± 0.30 | 5.45 ± 0.06 | 
Nc1ccc(S(=O)(=O)Nc2ncccn2)cc1 [Sulfadiazine] | 2.10 | 6.28 | 
[H]/N=C(/N)NS(=O)(=O)c1ccc(N)cc1 [Sulfaguanidine] | 1.55 | 11.24 | 
Cc1ccnc(NS(=O)(=O)c2ccc(N)cc2)n1 [Sulfamerazine] | 2.17 | 6.77 | 
Cc1cc(C)nc(NS(=O)(=O)c2ccc(N)cc2)n1 [Sulfamethazine] | 2.28 | 7.42 | 
Cc1nnc(NS(=O)(=O)c2ccc(N)cc2)s1 [Sulfamethizole] | 1.86 ± 0.30 | 5.29 ± 0.04 | 
Nc1ccc(S(=O)(=O)Nc2nccs2)cc1 [Sulfathiazole] | 2.08 | 7.07 | 
CC(C)(C)NC[C@H](O)COc1nsnc1N1CCOCC1 [Timolol] | 9.34 |  | 
COc1cc(Cc2cnc(N)nc2N)cc(OC)c1OC [Trimethoprim] | 3.23 ± 0.30 | 6.76 ± 0.12 | 
Fenbufen | 4.56 |  | 
Tylosin | 3.31 ± 0.30 | 7.50 ± 0.13 | 
